Laboratory results reported in article PMC11199699 (Scientific Reports, 2024).

Columns and labels:
[1] = test system: T1, PSMK_RS04265 (type 3 L-KDFDH); test: spectrophotometric NADH formation at […] nm, Lineweaver-Burk; assay type: biochemical, Phycisphaera mikurensis; details: 1.5 mM NAD+, 50 mM Tris-HCl pH 8.0, 30 °C
T1 construct: pQE-80L, N-terminal (His)6-tag, expressed in E. coli, Ni-NTA

[2] = test system: T2, PEH01S_RS21285 (type 2 L-KDFDH); test: as above; assay type: biochemical, Paenibacillus ehimensis; details: 1.5 mM NAD+, 50 mM Tris-HCl pH 8.0, 30 °C
T2 construct: pQE-80L, N-terminal (His)6-tag, expressed in E. coli, Ni-NTA

A Km [1] of 6.08 ± 0.15 mM and a Km [2] of 0.529 ± 0.021 mM were found for C[C@H](O)[C@@H](O)CC(=O)C(=O)O [L-KDF] in this work.
